Experimental data as given in patent US20230225313A1, “Methods and Compositions for Use in Glued-Wood Products” (ARXADA AG, priority 2020, published 2023).
Read-outs that look alike come from different tables or passages of the source.

Experiment: Thermogravimetric analysis (TGA), degradation temperature
Assay type: physicochemical
Protocol: The choice of suitable thermoplastics must also account for the biocide degradation temperature. The temperature of the melted thermoplastic at the point of biocide addition can be any temperature up to the biocide degradation temperature, preferably at least 20° C., and more preferably at least 40° C. below the biocide degradation temperature. Biocide degradation temperatures are most conveniently determined by thermogravimetric analysis (TGA). Unless hot melt mixing is to be performed in an inert atmosphere, TGA should be performed in air to account for oxidative degradation. TGA can be performed according to ISO 11358-1:2014.
Imidacloprid has a degradation temperature of about 274° C. (onset of weight loss, see the thermogravimetric analysis data in FIG. 1). Accordingly, the mixing of imidacloprid with any thermoplastic by hot melt extrusion (HME) should be performed at temperatures less than about 270° C.
Degradation temperatures were established by thermogravimetric analysis (TGA, see FIG. 1) with the following results: bifenthrin 195° C., triadimefon 195° C., and cyproconazole 205° C. These temperatures indicate upper limits for processing these biocides by HME. The melting points for these biocides are: bifenthrin 57-64.6° C., triadimefon 82.3° C., and cyproconazole 106.2-106.9° C.).
“Friable biocide-composites” comprising a biocide, a thermoplastic and an embrittling agent were formed by HME along with a “solidified biocide-composite” comprising a biocide and an embrittling agent, i.e. no thermoplastic. The organoclay Tixogel MP 100 was used as the embrittling agent. Tixogel MP 100 has a thermal degradation temperature of 222° C. measured as onset of weight loss (FIG. 7, note a slight initial loss of moisture). This temperature represents a practical upper limit for HME when using Tixogel MP 100.

| SMILES | Degradation temperature (TGA, onset of weight loss) | Degradation temperature |
| --- | --- | --- |
| Cc1c(COC(=O)[C@@H]2[C@H](/C=C(\Cl)C(F)(F)F)C2(C)C)cccc1-c1ccccc1 (relative stereo) [bifenthrin, (2-methyl[1,1′-biphenyl]-3-yl)methyl (1R,3R)-rel-3-[(1Z)-2-chloro-3,3,3-trifluoro-1-propen-1-yl]-2,2-dimethylcyclopropanecarboxylate] | 195 °C |  |
| O=[N+]([O-])NC1=NCCN1Cc1ccc(Cl)nc1 [Imidacloprid, (2E)-1-[(6-chloro-3-pyridinyl)methyl]-N-nitro-2-imidazolidinimin] |  | about 274 °C |
| CC(C1CC1)C(O)(Cn1cncn1)c1ccc(Cl)cc1 (stereo not drawn) [cyproconazole, α-(4-chlorophenyl)-α-(1-cyclopropylethyl)-1H-1,2,4-triazole-1-ethanol] |  | 205 °C |
| CC(C)(C)C(=O)C(Oc1ccc(Cl)cc1)n1cncn1 (stereo not shown) [triadimefon, 1-(4-chlorophenoxy)-3,3-dimethyl-1-(1H-1,2,4-triazol-1-yl)-2-butanone] | 195 °C |  |
